Our source for the IC50 values is patent publication US20100280010A1, “CHEMICAL COMPOUNDS” (priority 2006, published 2010).

Where only a bound is given, the exact number is not on record here.

The subject of this assay is HIV-1 (Ba-L or IIIB) infection of HOS cell line (expressing hCXCR4/hCCR5/hCD4/pHIV-LTR-luciferase). Kind of assay: HOS HIV-1 Infectivity Assay. Format: cell-based. The settings on record: Human immunodeficiency virus 1, HOS, virus strain not given, read-out: Activity Level. As to the method:
Compounds were profiled against two HIV-1 viruses, the M-tropic (CCR5 utilizing) Ba-L strain and the T-tropic (CXCR4 utilizing) IIIB strain. Ba-L was propagated in either peripheral blood lymphocytes or SupT1/CCR5+/CXCR4+ cells. IIIB was propagated in peripheral blood lymphocytes. Compounds were tested for their ability to block infection of the HOS cell line (expressing hCXCR4/hCCR5/hCD4/pHIV-LTR-luciferase) by either HIV-1 Ba-L or HIV-1 IIIB. Compound cytotoxicity was also examined in the absence of virus addition.
HOS cells (expressing hCXCR4/hCCR5/hCD4/pHIV-LTR-luciferase) were harvested and diluted in Dulbeccos modified Eagles media supplemented with 2% FCS to a concentration of 120,000 cells/ml. The cells were plated into 96-well plates (50 μl per well) and the plates were placed in a tissue culture incubator ([…]; 5% CO2195% air) for a period of 24 h.
Subsequently, 50 μl of the desired drug solution (2 times the final concentration) was added to each well and the plates were returned to the tissue culture incubator (370° C.; 5% CO2/95% air) for 1 h. Following this incubation, 60 μl of diluted virus (4 times the final concentration) was added to 60 μl of 2× the final desired concentration of the compound and 100 μl of this compound/virus mix was added to each well (approximately 2 million RLU per well of virus). The plates were returned to the tissue culture incubator (370° C.; 5% CO2/95% air) and were incubated for a further 96 h.
Following this incubation the endpoint for the virally infected cultures was quantified following addition of Steady-Glo Luciferase assay system reagent (Promega, Madison, Wis.). Cell viability or non-infected cultures was measured using a CellTiter-Glo luminescent cell viability assay system (Promega, Madison, Wis.). All luminescent readouts are performed on a Topcount luminescence detector (Packard, Meridien, Conn.).
With `CC(C)N1CCN(c2cccc3nc(CN(C)[C@H]4CCCc5cccnc54)c(Cl)n23)CC1` [Example 80, (8S)—N-({3-Chloro-5-[4-(1-methylethyl)-1-piperazinyl]imidazo[1,2-a]pyridin-2-yl}methyl)-N-methyl-5,6,7,8-tetrahydro-8-quinolinamine], the IC50 was below 100 nM.

Take `CN(Cc1nc2cccc(N3CCN4CCC[C@H]4C3)n2c1Cl)[C@H]1CCCc2cccnc21` [Example 81, (8S)—N-({3-Chloro-5-[(8aS)-hexahydropyrrolo[1,2-a]pyrazin-2(1H)-yl]imidazo[1,2-a]pyridin-2-yl}methyl)-N-methyl-5,6,7,8-tetrahydro-8-quinolinamine]: the IC50 was below 100 nM.

Regarding `CCCN(Cc1nc2cccc(N3CCN(C)CC3)n2c1Cl)[C@H]1CCCc2cccnc21` [Example 82, (8S)—N-{[3-Chloro-5-(4-methyl-1-piperazinyl)imidazo[1,2-a]pyridin-2-yl]methyl}-N-propyl-5,6,7,8-tetrahydro-8-quinolinamine], the IC50 was below 100 nM.

For `CCCN(Cc1nc2cccc(N3CCN(CC)CC3)n2c1Cl)[C@H]1CCCc2cccnc21` [Example 83, (8S)—N-{[3-Chloro-5-(4-ethyl-1-piperazinyl)imidazo[1,2-a]pyridin-2-yl]methyl}-N-propyl-5,6,7,8-tetrahydro-8-quinolinamine], the IC50 is below 100 nM.

As to `CCCN(Cc1nc2cccc(N3CCCN(C)CC3)n2c1Cl)[C@H]1CCCc2cccnc21` [Example 84, (8S)—N-{[3-Chloro-5-(4-methylhexahydro-1H-1,4-diazepin-1-yl)imidazo[1,2-a]pyridin-2-yl]methyl}-N-propyl-5,6,7,8-tetrahydro-8-quinolinamine], the IC50 was below 100 nM.

In the case of `CCCN(Cc1nc2cccc(N3CCN(C(C)C)CC3)n2c1Cl)[C@H]1CCCc2cccnc21` [Example 85, (8S)—N-({3-Chloro-5-[4-(1-methylethyl)-1-piperazinyl]imidazo[1,2-a]pyridin-2-yl}methyl)-N-propyl-5,6,7,8-tetrahydro-8-quinolinamine], the IC50 is below 100 nM.

Take `CCCN(Cc1nc2cccc(N3CC[C@@H](N(C)C)C3)n2c1Cl)[C@H]1CCCc2cccnc21` [Example 86, (8S)—N-({3-Chloro-5-[(3R)-3-(dimethylamino)-1-pyrrolidinyl]imidazo[1,2-a]pyridin-2-yl}methyl)-N-propyl-5,6,7,8-tetrahydro-8-quinolinamine]: the IC50 is below 100 nM.

Take `CCCN(Cc1nc2cccc(N3CCC(N(C)C)CC3)n2c1Cl)[C@H]1CCCc2cccnc21` [Example 87, (8S)—N-({3-Chloro-5-[4-(dimethylamino)-1-piperidinyl]imidazo[1,2-a]pyridin-2-yl}methyl)-N-propyl-5,6,7,8-tetrahydro-8-quinolinamine]: the IC50 was below 100 nM.

As for `CCCN(Cc1nc2cccc(N3CCN[C@@H](C)C3)n2c1Cl)[C@H]1CCCc2cccnc21` [Example 88, (8S)—N-({3-Chloro-5-[(3S)-3-methyl-1-piperazinyl]imidazo[1,2-a]pyridin-2-yl}methyl)-N-propyl-5,6,7,8-tetrahydro-8-quinolinamine], the IC50 was below 100 nM.

Turning to `CCCN(Cc1nc2cccc(N(C)CCN(C)C)n2c1Cl)[C@H]1CCCc2cccnc21` [Example 89, N-[3-Chloro-2-({propyl[(8S)-5,6,7,8-tetrahydro-8-Quinolinyl]amino}methyl)imidazo[1,2-a]pyridin-5-yl]-N,N′,N′-trimethyl-1,2-ethanediamine], the IC50 is below 100 nM.

For the molecule `CCCN(Cc1cn2c(N3CCN(C)CC3)ccc(F)c2n1)[C@H]1CCCc2cccnc21` [Example 90, (8S)—N-{[8-Fluoro-5-(4-methyl-1-piperazinyl)imidazo[1,2-a]pyridin-2-yl]methyl}-N-propyl-5,6,7,8-tetrahydro-8-quinolinamine], the IC50 was below 100 nM.
